Literature values, collected in patent publication US9358210B2, “Sustained-release pellets containing tacrolimus as an active ingredient” (priority 2010, dated 2016).

Question: Which solubility in water does the source give for C=CC[C@@H]1/C=C(\C)C[C@H](C)C[C@H](OC)[C@H]2O[C@@](O)(C(=O)C(=O)N3CCCC[C@H]3C(=O)O[C@H](/C(C)=C/[C@@H]3CC[C@@H](O)[C@H](OC)C3)[C@H](C)[C@@H](O)CC1=O)[C@H](C)C[C@@H]2OC [tacrolimus, 17-allyl-1,14-dihydroxy-12-[2-(4-hydroxy-3-methoxycyclohexyl)-1-methylvinyl]-23,25-dimethoxy-13,19,21,27-tetramethyl-11,28-dioxa-4-azatricyclo[22.3.1.0]octacos-18-ene-2,3,10,16-tetraone] here?
Answer: 1 to 2 µg/mL
